Several values for one entry are separate records, joined by “and”; a condition that tells them apart may be missing. Equal values may be shown once. Toxic doses and inconclusive results are not listed.
Tested on: B6C3F1 mice, ip Sarcoma M5076, median survival T/C
Assay: NCI In Vivo Anticancer Drug Screen. Data for tumor model Sarcoma M5076 (intraperitoneal) in B6C3F1 mice
Conditions: endpoint: median survival time, higher = longer survival
Description: The antitumor activity of compounds was measured in mice bearing transplantable tumors. Survival or tumor size were measured and the results are expressed as the measurement made in the treated group (T) divided by the measurement made in the vehicle treated control group (C). The tumor model used in this assay is Sarcoma M5076 (intraperitoneal) in B6C3F1 mice

[1] = dose: 60.0 mg/kg/injection, schedule: Q04DX004 (ip), vehicle: saline with Tween-80
[2] = dose: 25.0 mg/kg/injection, schedule: Q04DX004 (ip), vehicle: saline with Tween-80
[3] = dose: 50.0 mg/kg/injection, schedule: Q04DX004 (ip), vehicle: saline with Tween-80
[4] = dose: 200.0 mg/kg/injection, schedule: Q04DX004 (ip), vehicle: saline with Tween-80
[5] = dose: 100.0 mg/kg/injection, schedule: Q04DX004 (ip), vehicle: saline with Tween-80
[6] = dose: 25.0 mg/kg/injection, schedule: Q04DX004 (ip), vehicle: saline
[7] = dose: 50.0 mg/kg/injection, schedule: Q04DX004 (ip), vehicle: saline
[8] = dose: 100.0 mg/kg/injection, schedule: Q04DX004 (ip), vehicle: saline

Question: Which results are given for `Cc1nnc2c3nccnc3c(Cl)nn12`?
Answer: T/C (dose: 15.0 mg/kg/injection, schedule: Q04DX004 (ip), vehicle: saline with Tween-80): 102 % of control; T/C (dose: 30.0 mg/kg/injection, schedule: Q04DX004 (ip), vehicle: saline with Tween-80): 98 % of control; T/C [1]: 101 % of control; T/C (dose: 120.0 mg/kg/injection, schedule: Q04DX004 (ip), vehicle: saline with Tween-80): 108 % of control

Question: With `Cc1cccc(OCC(O)CN2CC2)c1` (configuration not stated) as the molecule, how does the T/C [2] read?
Answer: 101 % of control and 104 % of control

Question: What about the T/C (dose: 36.0 mg/kg/injection, schedule: Q04DX004 (ip), vehicle: saline with Tween-80) of the same molecule?
Answer: 97 % of control

Question: What about the T/C [3] of the same molecule?
Answer: 105 % of control and 114 % of control

Question: What about the T/C [1] of the same molecule?
Answer: 102 % of control

Question: And the T/C (dose: 166.66 mg/kg/injection, schedule: Q04DX004 (ip), vehicle: saline with Tween-80)?
Answer: 119 % of control

Question: And the T/C [4]?
Answer: 108 % of control

Question: And the T/C (dose: 277.77 mg/kg/injection, schedule: Q04DX004 (ip), vehicle: saline with Tween-80)?
Answer: 116 % of control

Question: `Cn1c2ccccc2c2oc(CO)cc(=O)c21` was tested. Which T/C (dose: 37.5 mg/kg/injection, schedule: Q04DX004 (ip), vehicle: Klucel (hydroxypropylcellulose) (HPC)) did it give?
Answer: 92 % of control

Question: What about the T/C (dose: 75.0 mg/kg/injection, schedule: Q04DX004 (ip), vehicle: Klucel (hydroxypropylcellulose) (HPC)) of the same molecule?
Answer: 91 % of control

Question: And the T/C (dose: 150.0 mg/kg/injection, schedule: Q04DX004 (ip), vehicle: Klucel (hydroxypropylcellulose) (HPC))?
Answer: 91 % of control

Question: What about the T/C (dose: 300.0 mg/kg/injection, schedule: Q04DX004 (ip), vehicle: Klucel (hydroxypropylcellulose) (HPC)) of the same molecule?
Answer: 87 % of control

Question: And the T/C (dose: 600.0 mg/kg/injection, schedule: Q04DX004 (ip), vehicle: Klucel (hydroxypropylcellulose) (HPC))?
Answer: 91 % of control

Question: Which results are given for `CS(=O)(=O)OCCCCOS(C)(=O)=O`?
Answer: T/C (dose: 6.25 mg/kg/injection, schedule: Q04DX004 (ip), vehicle: saline with Tween-80): 100 % of control; T/C (dose: 12.5 mg/kg/injection, schedule: Q04DX004 (ip), vehicle: saline with Tween-80): 104 % of control

Question: With `CCOC(=O)CC1(C)SCCN1C(=O)OCC` (configuration not stated) as the molecule, how does the T/C [3] read?
Answer: 114 % of control

Question: And the T/C [5]?
Answer: 114 % of control

Question: What about the T/C [4] of the same molecule?
Answer: 122 % of control

Question: What about the T/C (dose: 400.0 mg/kg/injection, schedule: Q04DX004 (ip), vehicle: saline with Tween-80) of the same molecule?
Answer: 103 % of control

Question: What about the T/C (dose: 800.0 mg/kg/injection, schedule: Q04DX004 (ip), vehicle: saline with Tween-80) of the same molecule?
Answer: 98 % of control

Question: For `NS(=O)(=O)OCCCCCCCOS(N)(=O)=O`, which T/C [2] is on record?
Answer: 124 % of control

Question: What about the T/C [5] of the same molecule?
Answer: 185 % of control

Question: What does the source list for `NC(=O)c1ncn(C2CC3[O][Sn]([c]4ccccc4)([c]4ccccc4)[O]CC3O2)n1` (configuration not stated)?
Answer: T/C (dose: 31.13 mg/kg/injection, schedule: Q04DX004 (ip), vehicle: distilled water + Tween-80): 95 % of control; T/C (dose: 62.5 mg/kg/injection, schedule: Q04DX004 (ip), vehicle: distilled water + Tween-80): 104 % of control; T/C (dose: 125.0 mg/kg/injection, schedule: Q04DX004 (ip), vehicle: distilled water + Tween-80): 114 % of control; T/C (dose: 250.0 mg/kg/injection, schedule: Q04DX004 (ip), vehicle: distilled water + Tween-80): 114 % of control; T/C (dose: 500.0 mg/kg/injection, schedule: Q04DX004 (ip), vehicle: distilled water + Tween-80): 122 % of control

Question: Which T/C [6] does the source give for `COC1N(C2CC(O)C(CO)O2)C(=O)NC(=O)C1(F)Br` (configuration not stated) here?
Answer: 108 % of control

Question: What about the T/C [7] of the same molecule?
Answer: 113 % of control

Question: And the T/C [8]?
Answer: 112 % of control

Question: What about the T/C (dose: 200.0 mg/kg/injection, schedule: Q04DX004 (ip), vehicle: saline) of the same molecule?
Answer: 114 % of control

Question: What about the T/C (dose: 400.0 mg/kg/injection, schedule: Q04DX004 (ip), vehicle: saline) of the same molecule?
Answer: 113 % of control

Question: Which T/C (dose: 0.12 mg/kg/injection, schedule: Q04DX005 (ip), vehicle: saline) does the source give for `COC(=O)[C@@]12OC[C@]34[C@H]([C@@H](O)[C@@H]1O)[C@@]1(C)CC(=O)C(O)=C(C)[C@@H]1C[C@H]3OC(=O)[C@H](OC(=O)/C=C(\C)C(C)C)[C@@H]24` here?
Answer: 97 % of control and 101 % of control

Question: What about the T/C (dose: 0.13 mg/kg/injection, schedule: Q04DX004 (ip), vehicle: saline) of the same molecule?
Answer: 97 % of control and 112 % of control and 124 % of control

Question: And the T/C (dose: 0.13 mg/kg/injection, schedule: Q04DX005 (ip), vehicle: saline)?
Answer: 117 % of control and 122 % of control

Question: How did the T/C (dose: 50.0 mg/kg/injection, schedule: Q04DX004 (ip), vehicle: Klucel (hydroxypropylcellulose) (HPC)) turn out when `C=Cc1cc(OC)c2c(c1)c(=O)oc1c2cc(OC)c2c(O)ccc(C3OC(C(C)O)C(O)C3O)c21` (configuration not stated) was run?
Answer: 109 % of control

Question: And the T/C (dose: 100.0 mg/kg/injection, schedule: Q04DX004 (ip), vehicle: Klucel (hydroxypropylcellulose) (HPC))?
Answer: 115 % of control

Question: What about the T/C (dose: 200.0 mg/kg/injection, schedule: Q04DX004 (ip), vehicle: Klucel (hydroxypropylcellulose) (HPC)) of the same molecule?
Answer: 110 % of control

Question: What does the source list for `C=C1C(O)C2OC3(CCC(/C=C/C(C)C4CC5(C)SC5C5(OC(CC(C)(O)C(=O)O)CCC5O)O4)O3)CCC2OC1C(O)CC(C)C1OC2(CCCCO2)CCC1C` (configuration not stated)?
Answer: T/C (dose: 2.5 micrograms/kg/injection, schedule: Q04DX004 (ip), vehicle: saline + alcohol): 101 % of control; T/C (dose: 5.0 micrograms/kg/injection, schedule: Q04DX004 (ip), vehicle: saline + alcohol): 96 % of control; T/C (dose: 10.0 micrograms/kg/injection, schedule: Q04DX004 (ip), vehicle: saline + alcohol): 99 % of control; T/C (dose: 20.0 micrograms/kg/injection, schedule: Q04DX004 (ip), vehicle: saline + alcohol): 95 % of control; T/C (dose: 40.0 micrograms/kg/injection, schedule: Q04DX004 (ip), vehicle: saline + alcohol): 95 % of control

Question: What does the source list for `CNCCN=c1ccc2c3c1c(O)c1c(O)ccc(=O)c1c3[nH]n2CCNCCO`?
Answer: T/C (dose: 0.75 mg/kg/injection, schedule: Q04DX004 (ip), vehicle: water): 156 % of control; T/C (dose: 1.5 mg/kg/injection, schedule: Q04DX004 (ip), vehicle: water): 162 % of control; T/C (dose: 3.0 mg/kg/injection, schedule: Q04DX004 (ip), vehicle: water): 204 % of control; T/C (dose: 6.25 mg/kg/injection, schedule: Q04DX004 (ip), vehicle: water): 245 % of control; T/C (dose: 12.5 mg/kg/injection, schedule: Q04DX004 (ip), vehicle: water): 90 % of control

Question: Which results are given for `Cc1ccc(Nc2nnc(CSc3ccc(Cl)cc3)s2)c(S(=O)(=O)O)c1`?
Answer: T/C (dose: 37.5 mg/kg/injection, schedule: Q04DX004 (ip), vehicle: saline with Tween-80): 99 % of control; T/C (dose: 75.0 mg/kg/injection, schedule: Q04DX004 (ip), vehicle: saline with Tween-80): 87 % of control; T/C (dose: 150.0 mg/kg/injection, schedule: Q04DX004 (ip), vehicle: saline with Tween-80): 91 % of control

Question: How did the T/C (dose: 86.4 mg/kg/injection, schedule: Q04DX004 (ip), vehicle: Klucel (hydroxypropylcellulose) (HPC)) turn out when `NC(=S)c1ncn(C2OC(COC=O)C(OC=O)C2OC=O)c1NC=O` (configuration not stated) was run?
Answer: 182 % of control

Question: And the T/C (dose: 144.0 mg/kg/injection, schedule: Q04DX004 (ip), vehicle: Klucel (hydroxypropylcellulose) (HPC))?
Answer: 174 % of control

Question: What about the T/C (dose: 240.0 mg/kg/injection, schedule: Q04DX004 (ip), vehicle: Klucel (hydroxypropylcellulose) (HPC)) of the same molecule?
Answer: 184 % of control

Question: And the T/C (dose: 400.0 mg/kg/injection, schedule: Q04DX004 (ip), vehicle: Klucel (hydroxypropylcellulose) (HPC))?
Answer: 168 % of control and 198 % of control

Question: What about the T/C (dose: 666.67 mg/kg/injection, schedule: Q04DX004 (ip), vehicle: Klucel (hydroxypropylcellulose) (HPC)) of the same molecule?
Answer: 229 % of control

Question: `CCOC(=O)c1cc(-c2ccccc2)c(OC)c(=O)nc1-c1ccccc1` was tested. Which T/C [3] did it give?
Answer: 89 % of control

Question: `Cc1ncc(CO)c(CO)c1OCC(O)CN1CCN(C(=O)c2ccccc2)CC1` (configuration not stated) was tested. Which T/C [6] did it give?
Answer: 103 % of control

Question: And the T/C [7]?
Answer: 103 % of control

Question: And the T/C [8]?
Answer: 99 % of control

Question: With `N#Cc1c(-c2ccc(F)cc2)c(-c2ccc(F)cc2)nn(CCO)c1=O` as the molecule, how does the T/C (dose: 12.5 mg/kg/injection, schedule: Q04DX004 (ip), vehicle: distilled water + Tween-80) read?
Answer: 96 % of control and 106 % of control

Question: What about the T/C (dose: 25.0 mg/kg/injection, schedule: Q04DX004 (ip), vehicle: distilled water + Tween-80) of the same molecule?
Answer: 101 % of control and 102 % of control

Question: And the T/C (dose: 50.0 mg/kg/injection, schedule: Q04DX004 (ip), vehicle: distilled water + Tween-80)?
Answer: 106 % of control and 111 % of control

Question: And the T/C (dose: 72.0 mg/kg/injection, schedule: Q04DX004 (ip), vehicle: distilled water + Tween-80)?
Answer: 103 % of control

Question: What about the T/C (dose: 100.0 mg/kg/injection, schedule: Q04DX004 (ip), vehicle: distilled water + Tween-80) of the same molecule?
Answer: 120 % of control and 124 % of control

Question: And the T/C (dose: 120.0 mg/kg/injection, schedule: Q04DX004 (ip), vehicle: distilled water + Tween-80)?
Answer: 115 % of control

Question: What about the T/C (dose: 200.0 mg/kg/injection, schedule: Q04DX004 (ip), vehicle: distilled water + Tween-80) of the same molecule?
Answer: 123 % of control

Question: And the T/C (dose: 333.0 mg/kg/injection, schedule: Q04DX004 (ip), vehicle: distilled water + Tween-80)?
Answer: 150 % of control

Question: And the T/C (dose: 555.0 mg/kg/injection, schedule: Q04DX004 (ip), vehicle: distilled water + Tween-80)?
Answer: 153 % of control
